Broadly, the IC50 is the concentration that inhibits the measured activity by half.

The target of the assay is T1, human TRPM8 (Homo sapiens, UniProt Q7Z2W7).
T1 construct: expressed in transfected cells; host or cells: Chinese hamster ovary (CHO) cells, T-REx tetracycline-inducible system, co-transfected with aequorin
T1 sequence (Q7Z2W7 whole entry): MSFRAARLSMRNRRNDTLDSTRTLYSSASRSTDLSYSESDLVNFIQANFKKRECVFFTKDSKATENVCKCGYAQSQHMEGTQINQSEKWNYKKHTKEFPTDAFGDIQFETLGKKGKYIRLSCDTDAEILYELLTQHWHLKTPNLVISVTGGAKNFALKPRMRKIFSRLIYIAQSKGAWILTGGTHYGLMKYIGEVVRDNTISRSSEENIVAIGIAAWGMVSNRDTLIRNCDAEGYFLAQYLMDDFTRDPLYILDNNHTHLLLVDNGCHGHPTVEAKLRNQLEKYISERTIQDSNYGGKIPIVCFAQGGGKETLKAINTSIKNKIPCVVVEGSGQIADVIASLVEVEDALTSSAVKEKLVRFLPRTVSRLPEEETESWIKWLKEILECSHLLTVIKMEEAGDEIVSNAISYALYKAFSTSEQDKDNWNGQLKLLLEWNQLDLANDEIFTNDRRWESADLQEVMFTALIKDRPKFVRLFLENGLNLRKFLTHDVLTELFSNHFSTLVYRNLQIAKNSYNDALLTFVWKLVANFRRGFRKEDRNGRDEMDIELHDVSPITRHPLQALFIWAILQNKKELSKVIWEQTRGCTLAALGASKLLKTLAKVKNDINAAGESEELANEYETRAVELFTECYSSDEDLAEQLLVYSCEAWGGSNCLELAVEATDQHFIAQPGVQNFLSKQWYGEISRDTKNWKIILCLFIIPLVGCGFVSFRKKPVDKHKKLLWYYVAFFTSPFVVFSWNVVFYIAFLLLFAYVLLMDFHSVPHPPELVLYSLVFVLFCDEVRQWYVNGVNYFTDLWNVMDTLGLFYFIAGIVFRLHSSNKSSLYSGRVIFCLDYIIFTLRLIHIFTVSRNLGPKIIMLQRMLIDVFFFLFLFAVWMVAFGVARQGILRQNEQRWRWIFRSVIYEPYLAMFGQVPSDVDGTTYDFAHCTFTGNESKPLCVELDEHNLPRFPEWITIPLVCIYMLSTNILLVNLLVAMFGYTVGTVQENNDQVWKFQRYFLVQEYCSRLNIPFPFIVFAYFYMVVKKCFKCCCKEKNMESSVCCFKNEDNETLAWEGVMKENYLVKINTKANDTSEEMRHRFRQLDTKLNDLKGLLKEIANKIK
The experiment in a line: Luminescence readout assay for measuring intracellular calcium, icilin activation. The assay is classed as cell-based. The conditions noted are these: CHO cells expressing human TRPM8, aequorin luminescence, 1 μM icilin activation; read-out: hTRPM8 IC50. The method in brief:
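The read-out was luminescence reporting intracellular calcium, recorded by a CCD-based luminometer. Compounds were preincubated for 2.5 min before agonist challenge with 1 μM icilin. Human TRPM8 was expressed in a stable T-REx CHO line, induced with 0.5 μg/mL tetracycline the day before.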
In the case of `O=C(N[C@@H](c1ccc(C(F)(F)F)cc1)c1ncccc1F)c1ccccc1` [Example 180, (S)-N-((3-fluoropyridin-2-yl)(4-(trifluoromethyl)phenyl)methyl)benzamide], the IC50 came to 29.7 nM.
The figure for `Cn1ccc(C(=O)N[C@@H](c2ccc(C(F)(F)F)cc2)c2ncccc2C(F)(F)F)n1` [Example 192, (S)-1-methyl-N-((4-(trifluoromethyl)phenyl)(3-(trifluoromethyl)pyridin-2-yl)methyl)-1H-pyrazole-3-carboxamide] is 79 nM; for `O=C(N[C@@H](c1ccc(C(F)(F)F)cc1)c1ncccc1F)c1c[nH]c(=O)cn1` [Example 319, (S)-N-((3-fluoropyridin-2-yl)(4-(trifluoromethyl)phenyl)methyl)-5-oxo-4,5-dihydropyrazine-2-carboxamide] it is 132 nM; for `O=C(NC(c1cccc(F)c1)c1ccc(OC(F)(F)F)c(F)c1)c1ccc(=O)[nH]c1` (stereo not shown) [Example 417, N-((3-fluoro-4-(trifluoromethoxy)phenyl)(3-fluorophenyl)methyl)-6-oxo-1,6-dihydropyridine-3-carboxamide] it is 83 nM.
With `O=C(N[C@@H](c1ccc(C(F)(F)F)cc1)c1ncccc1C(F)(F)F)[C@H]1CC[C@@H](CO)CC1` [Example 241, (1s,4R)-4-(hydroxymethyl)-N-((S)-(4-(trifluoromethyl)phenyl)(3-(trifluoromethyl)pyridin-2-yl)methyl)cyclohexanecarboxamide] the figure was 590 nM; with `O=C(O)c1cccc(C(=O)N[C@@H](c2ccc(C(F)(F)F)cc2)c2ncccc2F)c1` [Example 207, (S)-3-(((3-fluoropyridin-2-yl)(4-(trifluoromethyl)phenyl)methyl)carbamoyl)benzoic acid], 121 nM; with `O=C(N[C@@H](c1ccc(OC(F)(F)F)cc1)c1ncccc1F)c1ccc2[nH]c(=O)oc2c1` [Example 80, (S)-N-((3-fluoropyridin-2-yl)(4-(trifluoromethoxy)phenyl)methyl)-2-oxo-2,3-dihydrobenzo[d]oxazole-6-carboxamide], 23.1 nM.
With `Cc1ncoc1C(=O)NC(c1ccc(C(F)(F)F)cc1)c1ncccc1F` (stereo not shown) [Example 221] the figure was 105 nM; with `O=C(Cn1ccnc1)N[C@@H](c1ccc(C(F)(F)F)cc1)c1ncccc1C(F)(F)F` [Example 161, (S)-2-(1H-imidazol-1-yl)-N-((4-(trifluoromethyl)phenyl)(3-(trifluoromethyl)pyridin-2-yl)methyl)acetamide 2,2,2-trifluoroacetate], 3370 nM.
On to `O=C(N[C@@H](c1ccc(OC(F)(F)F)c(F)c1)c1ncccc1C(F)(F)F)c1ccc2oc(=O)[nH]c2c1` [Example 385, (S)-N-((3-fluoro-4-(trifluoromethoxy)phenyl)(3-(trifluoromethyl)pyridin-2-yl)methyl)-2-oxo-2,3-dihydrobenzo[d]oxazole-5-carboxamide], for which the IC50 worked out at 6.7 nM.
The figure for `O=C(N[C@@H](c1ccc(F)c(F)c1)c1ncccc1F)c1ccc(=O)[nH]c1` [Example 331, (S)-N-((3,4-difluorophenyl)(3-fluoropyridin-2-yl)methyl)-6-oxo-1,6-dihydropyridine-3-carboxamide] is 965 nM; for `O=C(N[C@@H](c1ccc(C(F)(F)F)cc1)c1ncccc1F)c1ccc2nccc(Cl)c2c1` [Example 113, (S)-4-chloro-N-((3-fluoropyridin-2-yl)(4-(trifluoromethyl)phenyl)methyl)quinoline-6-carboxamide 2,2,2-trifluoroacetate] it is 31.1 nM.
The figure for `Cn1cc(C(=O)N[C@@H](c2cc(F)cc(F)c2)c2ncccc2F)ccc1=O` [Example 330, (S)-N-((3,5-difluorophenyl)(3-fluoropyridin-2-yl)methyl)-1-methyl-6-oxo-1,6-dihydropyridine-3-carboxamide] is 2680 nM.

Source of the values: US8710043B2, “TRPM8 antagonists and their use in treatments” (Amgen Inc., priority 2011, dated 2014).
